From publication doi:10.1101/2020.10.22.350827v1 (biorxiv, 2020)
Positions count from the first letter of the chain named.

Columns and labels:
[1] = target: T1, Nluc-A1R (adenosine A1 receptor) (Homo sapiens, UniProt P30542, I69A); assay: NanoBRET competition binding, live HEK […] cells; type: cell-based
T1 sequence (P30542 1-326 I69A): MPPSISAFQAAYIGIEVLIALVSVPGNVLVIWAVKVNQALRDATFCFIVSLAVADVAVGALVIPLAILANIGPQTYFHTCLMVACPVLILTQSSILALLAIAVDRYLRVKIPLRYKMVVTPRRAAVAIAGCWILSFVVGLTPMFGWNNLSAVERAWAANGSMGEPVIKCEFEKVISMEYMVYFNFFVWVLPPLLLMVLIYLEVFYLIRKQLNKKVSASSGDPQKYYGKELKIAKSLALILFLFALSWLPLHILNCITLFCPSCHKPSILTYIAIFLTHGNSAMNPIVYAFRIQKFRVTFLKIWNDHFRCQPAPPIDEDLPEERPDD

[2] = target: T2, Nluc-A1R (adenosine A1 receptor) S267A (Homo sapiens, UniProt P30542, S267A); assay: cell-based; parameters: species or system HEK 293
T2 sequence (P30542 1-326 S267A): T1 sequence (P30542 1-326 I69A) with A69I, S267A

[3] = target: T3, Nluc-A1R (adenosine A1 receptor) N148A (Homo sapiens, UniProt P30542, N148A); assay: cell-based; parameters: species or system HEK 293
T3 sequence (P30542 1-326 N148A): T1 sequence (P30542 1-326 I69A) with A69I, N148A

[4] = target: T4, Nluc-A1R (adenosine A1 receptor) Y12A (Homo sapiens, UniProt P30542, Y12A); assay: cell-based; parameters: species or system HEK 293
T4 sequence (P30542 1-326 Y12A): T1 sequence (P30542 1-326 I69A) with Y12A, A69I

[5] = target: T5, Nluc-A1R (adenosine A1 receptor) L258A (Homo sapiens, UniProt P30542, L258A); assay: cell-based; parameters: species or system HEK 293
T5 sequence (P30542 1-326 L258A): T1 sequence (P30542 1-326 I69A) with A69I, L258A

[6] = target: T6, Nluc-A1R (adenosine A1 receptor) L253T (Homo sapiens, UniProt P30542, L253T); assay: cell-based; parameters: species or system HEK 293
T6 sequence (P30542 1-326 L253T): T1 sequence (P30542 1-326 I69A) with A69I, L253T

[7] = target: T7, Nluc-A1R (adenosine A1 receptor) (Homo sapiens, UniProt P30542); assay: NanoBRET competition binding, live HEK […] cells; type: cell-based
T7 sequence (P30542 1-326): T1 sequence (P30542 1-326 I69A) with A69I

Structure (SMILES): OC[C@H]1O[C@@H](n2cnc3c(N[C@@H]4CCC[C@H]4O)ncnc32)[C@H](O)[C@@H]1O [compound 6, HOCPA]
- Ki [1]: 45700 nM
- Ki [2]: 1020 nM
- Ki [3]: 708 nM
- Ki [4]: 1660 nM
- Ki [5]: 1410 nM
- Ki [6]: 2040 nM
- Ki [7]: 427 nM
